Source: the NIST ThermoML archive (doi:10.1016/j.jct.2016.07.020)

Assay: mn = molality of the nth substance listed, in mol/kg
Settings: 101.3 kPa, Liquid, Capillary tube (Ostwald / Ubbelohde) method

OC[C@H]1OC(O)C[C@@H](O)[C@@H]1O (stereo partly drawn) [2-deoxy-D-glucose] + O
viscosity [mPa·s]
Settings	m1 = 0.04	m1 = 0.06	m1 = 0.0797	m1 = 0.1001	m1 = 0.1201	m1 = 0.1399
288.15 K	1.161	1.171	1.18	1.191	1.201	1.213
298.15 K	0.907	0.913	0.919	0.928	0.936	0.945
308.15 K	0.73	0.736	0.742	0.749	0.754	0.761
318.15 K	0.605	0.609	0.615	0.619	0.624	0.629

O=C[C@H](O)[C@@H](O)[C@@H](O)[C@H](O)CO [(+)-galactose] + O
viscosity [mPa·s]
Settings	m1 = 0.0402	m1 = 0.0601	m1 = 0.0792	m1 = 0.0992	m1 = 0.1199	m1 = 0.139	m1 = 0.1594	m1 = 0.1793
288.15 K	1.158	1.168	1.179	1.19	1.203	1.214	1.224	1.237
298.15 K	0.905	0.913	0.92	0.929	0.938	0.945	0.953	0.961
308.15 K	–	0.737	0.743	0.749	0.755	0.76	0.766	0.773
318.15 K	0.606	0.611	0.615	0.618	0.624	0.626	0.631	0.635

O=C[C@H](O)[C@@H](O)[C@H](O)[C@H](O)CO [D-glucose] + O
viscosity [mPa·s]
Settings	m1 = 0.04	m1 = 0.0599	m1 = 0.0797	m1 = 0.0999	m1 = 0.1197	m1 = 0.14	m1 = 0.1598	m1 = 0.1797
288.15 K	1.161	–	1.181	1.193	1.204	1.216	1.227	1.241
298.15 K	0.907	0.915	0.924	0.932	0.94	0.947	0.954	0.961
308.15 K	0.733	0.737	0.744	0.751	0.756	0.762	0.768	0.774
318.15 K	0.606	0.61	0.614	0.62	0.624	0.629	0.636	0.64

O=C[C@H](O)[C@@H](O)[C@H](O)CO [D-xylose] + O
viscosity [mPa·s]
Settings	m1 = 0.0399	m1 = 0.0601	m1 = 0.0797	m1 = 0.0993	m1 = 0.1195	m1 = 0.1391	m1 = 0.1583	m1 = 0.1783
288.15 K	1.155	1.163	1.173	1.181	1.188	1.197	1.206	1.214
298.15 K	0.901	0.909	0.914	0.92	0.927	0.932	0.937	0.944
308.15 K	0.727	0.733	0.739	0.742	0.747	0.751	0.756	0.762
318.15 K	0.603	0.607	0.61	0.614	0.618	0.623	0.626	0.63

O=C1O[C@H]([C@@H](O)CO)C(O)=C1O [L-ascorbic acid] + O
viscosity [mPa·s]
Settings	288.15 K	298.15 K	308.15 K	318.15 K
m1 = 0.05	1.163	0.91	0.732	0.605
m1 = 0.15	1.21	0.944	0.759	0.625
m1 = 0.25	1.257	0.979	0.787	0.646
m1 = 0.35	1.305	1.017	0.813	0.669

OC[C@@H](O)[C@H](O)[C@H](O)[C@@H](O)CO [dulcitol] + O
viscosity [mPa·s]
Settings	m1 = 0.04	m1 = 0.0603	m1 = 0.0797	m1 = 0.1002	m1 = 0.1196	m1 = 0.14	m1 = 0.1597	m1 = 0.1795
288.15 K	1.161	1.172	1.183	1.191	1.202	1.213	1.221	1.229
298.15 K	0.904	0.912	0.919	0.926	0.933	0.939	0.948	0.953
308.15 K	0.73	0.736	0.741	0.746	0.751	0.756	0.761	0.766
318.15 K	0.602	0.607	0.61	0.614	0.617	0.623	0.626	0.628

CO[C@H]1O[C@H](CO)[C@@H](O)[C@H](O)[C@H]1O [methyl-α-D-glucopyranoside] + O
viscosity [mPa·s]
Settings	m1 = 0.0397	m1 = 0.06	m1 = 0.08	m1 = 0.0999	m1 = 0.1191	m1 = 0.1402	m1 = 0.1599	m1 = 0.1801
288.15 K	1.159	1.172	1.183	1.194	1.206	1.218	1.23	1.241
298.15 K	0.906	0.916	0.925	0.931	0.94	0.948	0.956	0.964
308.15 K	0.732	0.739	0.745	0.751	0.757	0.764	0.77	0.777
318.15 K	0.606	0.611	0.616	0.621	0.625	0.631	0.636	0.64

OC[C@@H](O)[C@H](O)[C@@H](O)CO [xylitol] + O
viscosity [mPa·s]
Settings	m1 = 0.0399	m1 = 0.0599	m1 = 0.08	m1 = 0.0999	m1 = 0.1196	m1 = 0.1396	m1 = 0.1593	m1 = 0.1801
288.15 K	1.16	1.17	1.179	1.188	1.197	1.206	1.214	1.223
298.15 K	0.905	0.913	0.919	0.926	0.933	0.939	0.947	0.954
308.15 K	0.73	0.736	0.742	0.746	0.751	0.757	0.762	0.766
318.15 K	0.604	0.608	0.612	0.616	0.621	0.625	0.63	0.634
